Earlier results, collected in patent US20220016116A1, “DETERMINING DRUG COMBINATIONS, SYNERGISTIC DRUG COMBINATION AND USE THEREOF IN PANCREATIC CANCER TREATMENT” (Innoplexus AG, priority 2020, published 2022).

Columns and labels:
[1] = independent of drug concentrations from 250 ng/mL to 1000 ng/mL
[2] = target: human epidermal growth factor receptor (EGFR) family (EGFR/HER1, HER2, and HER4) tyrosine kinases; conditions: read-out: IC50 (affinity)
[3] = test system: PDAC cell
[4] = 45 mg orally once daily, CV 35%

## COc1cc2ncnc(Nc3ccc(F)c(Cl)c3)c2cc1NC(=O)/C=C/CN1CCCCC1 [Dacomitinib, (2E)-N-16-4-(piperidin-1-yl) but-2-enamide]
[1]
  bound to plasma proteins: 98%
[2]
  IC50: 6 nM
[3]; through inhibition of EMT markers ZEB1, Snail and N-cadherin
  cell migration and invasion: attenuated cell migration and invasion
[3]; via inhibition of FOXM1 and its targets Aurora kinase B and cyclin B1
  PDAC cell proliferation: diminishes PDAC cell proliferation
[3]; via inhibition of anti-apoptotic proteins survivin and MCL1
  apoptosis and radio-sensitivity: induces apoptosis and potentiated radio-sensitivity
[4]
  Cmax, geometric mean: 108 ng/mL
  area under the concentration-time curve (AUC): 2213 ng·h/mL
CV 18%
  volume of distribution: 1889 L
After oral administration
  mean absolute bioavailability: 80%
oral
  time to reach maximum concentration: approximately 6.0 h
